Reference: ChEMBL document CHEMBL1629642, “In vitro efficacy of ST246 against smallpox and monkeypox” (Antimicrob Agents Chemother, 2009)
Active and inactive are the calls of the source. The calls are words filed in the database; no cut-off is given here.

Legend:
Variola virus [1] = test: Antiviral activity against Variola virus SOM77-ali infected in african green monkey BSC-40 cells at 0.05 to 0.5 uM by IHC staining-based comet tail reduction assay; assay type: functional, organism-based
Variola virus [2] = test: Antiviral activity against Variola virus SUD47-juba infected in african green monkey BSC-40 cells at 0.015 uM assessed as reduction in virus-induced cytopathic effect; assay type: functional, organism-based
Monkeypox virus [3] = test: Antiviral activity against Monkeypox virus V81-I-179 infected in african green monkey BSC-40 cells assessed as reduction in virus-induced cytopathic effect; assay type: functional, organism-based; conditions: V81-I-179, BSC-40
Variola virus [4] = test: microbe, parasite or virus in culture; conditions: BSH74-sol, BSC-40
Monkeypox virus [5] = test: Antiviral activity against Monkeypox virus V78-I-3945 infected in african green monkey BSC-40 cells assessed as reduction in virus-induced cytopathic effect; assay type: functional, organism-based; conditions: V78-I-3945, BSC-40
Variola virus [6] = test: Antiviral activity against Variola virus BSH74-sol infected in african green monkey BSC-40 cells at 0.015 uM assessed as reduction in virus-induced cytopathic effect; assay type: functional, organism-based
Monkeypox virus [7] = test: Antiviral activity against Monkeypox virus V81-I-179 infected in african green monkey BSC-40 cells assessed as reduction in viral plaque formation at 0.015 uM uM by IHC staining-based plaque reduction assay; assay type: functional
Variola virus [8] = test: Antiviral activity against Variola virus SOM77-ali infected in african green monkey BSC-40 cells at 0.005 uM assessed as reduction in virus-induced cytopathic effect; assay type: functional, organism-based
Monkeypox virus [9] = test: Antiviral activity against Monkeypox virus V78-I-3945 infected in african green monkey BSC-40 cells at 0.005 uM by IHC staining-based comet tail reduction assay; assay type: functional, organism-based
Variola virus [10] = test: Antiviral activity against Variola virus NEP73-175 infected in african green monkey BSC-40 cells at 0.005 uM by IHC staining-based comet tail reduction assay; assay type: functional, organism-based
Variola virus [11] = test: Antiviral activity against Variola virus SOM77-ali infected in african green monkey BSC-40 cells at 0.05 to 5 uM assessed as reduction in virus-induced cytopathic effect; assay type: functional, organism-based
Monkeypox virus [12] = test: Antiviral activity against Monkeypox virus V81-I-179 infected in african green monkey BSC-40 cells assessed as reduction in virus-induced cytopathic effect at 0.015 uM; assay type: functional, organism-based
Variola virus [13] = test: Antiviral activity against Variola virus SUD47-juba infected in african green monkey BSC-40 cells at 0.015 uM by IHC staining-based comet tail reduction assay; assay type: functional, organism-based
Monkeypox virus [14] = test: Antiviral activity against Monkeypox virus 2003-USA-039 infected in african green monkey BSC-40 cells at 0.05 to 0.5 uM by IHC staining-based comet tail reduction assay; assay type: functional, organism-based
Monkeypox virus [15] = test: Antiviral activity against Monkeypox virus V77-I-823 infected in african green monkey BSC-40 cells assessed as reduction in virus-induced cytopathic effect at 0.05 to 5 uM; assay type: functional, organism-based
Monkeypox virus [16] = test: Antiviral activity against Monkeypox virus V77-I-823 infected in african green monkey BSC-40 cells at 0.05 to 0.5 uM by IHC staining-based comet tail reduction assay; assay type: functional, organism-based
Monkeypox virus [17] = test: Antiviral activity against Monkeypox virus V1979-I-005 infected in african green monkey BSC-40 cells at 0.05 to 0.5 uM by IHC staining-based plaque reduction assay; assay type: functional, organism-based
Variola virus [18] = test: Antiviral activity against Variola virus BSH74-sol infected in african green monkey BSC-40 cells at 0.015 uM by IHC staining-based comet tail reduction assay; assay type: functional, organism-based
Variola virus [19] = test: Antiviral activity against Variola virus BRZ66-39 infected in african green monkey BSC-40 cells at 0.05 to 5 uM assessed as reduction in virus-induced cytopathic effect; assay type: functional, organism-based
Variola virus [20] = test: Antiviral activity against Variola virus SOM77-ali infected in african green monkey BSC-40 cells at 0.015 uM assessed as reduction in virus-induced cytopathic effect; assay type: functional, organism-based
Monkeypox virus [21] = test: Antiviral activity against Monkeypox virus V1979-I-005 infected in african green monkey BSC-40 cells assessed as reduction in viral plaque formation at 0.015 uM uM by IHC staining-based plaque reduction assay; assay type: functional
Monkeypox virus [22] = test: Antiviral activity against Monkeypox virus 2003-USA-039 infected in african green monkey BSC-40 cells assessed as reduction in virus-induced cytopathic effect at 0.05 to 5 uM; assay type: functional, organism-based
Variola virus [23] = test: Antiviral activity against Variola virus NEP73-175 infected in african green monkey BSC-40 cells at 0.05 to 5 uM assessed as reduction in virus-induced cytopathic effect; assay type: functional, organism-based
Variola virus [24] = test: Antiviral activity against Variola virus SLN68-258 infected in african green monkey BSC-40 cells at 0.005 uM assessed as reduction in virus-induced cytopathic effect; assay type: functional, organism-based
Monkeypox virus [25] = test: Antiviral activity against Monkeypox virus V78-I-3945 infected in african green monkey BSC-40 cells assessed as reduction in virus-induced cytopathic effect at 0.05 to 5 uM; assay type: functional, organism-based
Monkeypox virus [26] = test: Antiviral activity against Monkeypox virus V77-I-823 infected in african green monkey BSC-40 cells at 0.05 to 0.5 uM by IHC staining-based plaque reduction assay; assay type: functional, organism-based
Monkeypox virus [27] = test: Antiviral activity against Monkeypox virus V81-I-179 infected in african green monkey BSC-40 cells at 0.005 uM uM by IHC staining-based plaque reduction assay; assay type: functional, organism-based
Monkeypox virus [28] = test: Antiviral activity against Monkeypox virus V81-I-179 infected in african green monkey BSC-40 cells at 0.05 to 0.5 uM by IHC staining-based comet tail reduction assay; assay type: functional, organism-based
Variola virus [29] = test: Antiviral activity against Variola virus BRZ66-39 infected in african green monkey BSC-40 cells at 0.05 to 0.5 uM by IHC staining-based plaque reduction assay; assay type: functional, organism-based
Variola virus [30] = test: Antiviral activity against Variola virus infected in african green monkey vero cells assessed as reduction in virus-induced cytopathic effect; assay type: functional, organism-based
Cowpox virus = test: Antiviral activity against Cowpox virus infected in african green monkey Vero cells assessed as reduction in virus-induced cytopathic effect; assay type: functional, organism-based
Variola virus [31] = test: Antiviral activity against Variola virus BRZ66-39 infected in african green monkey BSC-40 cells at 0.015 uM assessed as reduction in virus-induced cytopathic effect; assay type: functional, organism-based
Variola virus [32] = test: Antiviral activity against Variola virus SUD47-juba infected in african green monkey BSC-40 cells at 0.005 uM by IHC staining-based comet tail reduction assay; assay type: functional, organism-based
Monkeypox virus [33] = test: Antiviral activity against Monkeypox virus V78-I-3945 infected in african green monkey BSC-40 cells at 0.05 to 0.5 uM by IHC staining-based comet tail reduction assay; assay type: functional, organism-based
Monkeypox virus [34] = test: Antiviral activity against Monkeypox virus V77-I-823 infected in african green monkey BSC-40 cells assessed as reduction in virus-induced cytopathic effect; assay type: functional, organism-based; conditions: V77-I-823, BSC-40
Monkeypox virus [35] = test: Antiviral activity against Monkeypox virus 2003-USA-039 infected in african green monkey BSC-40 cells at 0.005 uM uM by IHC staining-based plaque reduction assay; assay type: functional, organism-based
Monkeypox virus [36] = test: Antiviral activity against Monkeypox virus 2003-USA-039 infected in african green monkey BSC-40 cells at 0.05 to 0.5 uM by IHC staining-based plaque reduction assay; assay type: functional, organism-based

O=C(NN1C(=O)[C@@H]2[C@@H]3C=C[C@@H]([C@H]4C[C@@H]34)[C@@H]2C1=O)c1ccc(C(F)(F)F)cc1 [TECOVIRIMAT]
Activity (Variola virus [1]): Active
Activity (Variola virus [2]): Active
EC50 (Monkeypox virus [3]): 32 nM
EC50 (Variola virus [4]): 28 nM
EC50 (Monkeypox virus [5]): 23 nM
Activity (Variola virus [6]): Active
inhibition (INH) (Monkeypox virus [7]): 50%
Activity (Variola virus [8]): inactive
Activity (Monkeypox virus [9]): inactive
Activity (Variola virus [10]): inactive
Activity (Variola virus [11]): Active
Activity (Monkeypox virus [12]): Active
Activity (Variola virus [13]): Active
Activity (Monkeypox virus [14]): Active
Activity (Monkeypox virus [15]): Active
Activity (Monkeypox virus [16]): Active
Activity (Monkeypox virus [17]): Active
Activity (Variola virus [18]): Active
Activity (Variola virus [19]): Active
Activity (Variola virus [20]): Active
inhibition (INH) (Monkeypox virus [21]): 50%
Activity (Monkeypox virus [22]): Active
Activity (Variola virus [23]): Active
Activity (Variola virus [24]): inactive
Activity (Monkeypox virus [25]): Active
Activity (Monkeypox virus [26]): Active
Activity (Monkeypox virus [27]): inactive
Activity (Monkeypox virus [28]): Active
Activity (Variola virus [29]): Active
Activity (Variola virus [30]): Active
Activity (Cowpox virus): Active
Activity (Variola virus [31]): Active
Activity (Variola virus [32]): inactive
Activity (Monkeypox virus [33]): Active
EC50 (Monkeypox virus [34]): 30 nM
Activity (Monkeypox virus [35]): inactive
Activity (Monkeypox virus [36]): Active
